Reference: PubChem BioAssay (NCI)
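Compound exposure: 48 hours, 5 concentrations, 96-well plates. The concentration for full growth arrest is given as TGI.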

Tests used:
Test in all cases: NCI-60 cell line screen, 48 h
HCT-15 colon = tested on: HCT-15 colon
EKVX NSCLC = tested on: EKVX NSCLC
HS 578T breast = tested on: HS 578T breast
A549 NSCLC = tested on: A549 NSCLC
NCI-H23 lung = tested on: NCI-H23 lung
PC-3 prostate = tested on: PC-3 prostate
SK-OV-3 ovarian = tested on: SK-OV-3 ovarian
SF-268 CNS = tested on: SF-268 CNS
MDA-N = tested on: MDA-N
OVCAR-5 ovarian = tested on: OVCAR-5 ovarian
HOP-62 NSCLC = tested on: HOP-62 NSCLC
SF-295 CNS = tested on: SF-295 CNS
CAKI-1 renal = tested on: CAKI-1 renal
T-47D breast = tested on: T-47D breast
NCI-H522 lung = tested on: NCI-H522 lung
SNB-19 CNS = tested on: SNB-19 CNS
K-562 leukemia = tested on: K-562 leukemia
ACHN renal = tested on: ACHN renal
MDA-MB-435 = tested on: MDA-MB-435
786-0 renal = tested on: 786-0 renal
MDA-MB-231 breast = tested on: MDA-MB-231 breast
OVCAR-4 ovarian = tested on: OVCAR-4 ovarian
MALME-3M melanoma = tested on: MALME-3M melanoma
TK-10 renal = tested on: TK-10 renal
COLO 205 colon = tested on: COLO 205 colon
MOLT-4 leukemia = tested on: MOLT-4 leukemia
SNB-75 CNS = tested on: SNB-75 CNS
HCC-2998 colon = tested on: HCC-2998 colon
UACC-62 melanoma = tested on: UACC-62 melanoma
UO-31 renal = tested on: UO-31 renal
SN12C renal = tested on: SN12C renal
NCI/ADR-RES ovarian = tested on: NCI/ADR-RES ovarian
LOX IMVI melanoma = tested on: LOX IMVI melanoma
U251 CNS = tested on: U251 CNS
OVCAR-8 ovarian = tested on: OVCAR-8 ovarian
RXF 393 renal = tested on: RXF 393 renal
A498 renal = tested on: A498 renal
KM12 colon = tested on: KM12 colon
CCRF-CEM leukemia = tested on: CCRF-CEM leukemia
NCI-H226 lung = tested on: NCI-H226 lung
SW-620 colon = tested on: SW-620 colon
IGROV1 ovarian = tested on: IGROV1 ovarian
NCI-H460 lung = tested on: NCI-H460 lung
UACC-257 melanoma = tested on: UACC-257 melanoma
M14 melanoma = tested on: M14 melanoma
SF-539 CNS = tested on: SF-539 CNS
MCF7 breast = tested on: MCF7 breast
SK-MEL-2 melanoma = tested on: SK-MEL-2 melanoma
HCT-116 colon = tested on: HCT-116 colon
SK-MEL-28 melanoma = tested on: SK-MEL-28 melanoma
RPMI-8226 leukemia = tested on: RPMI-8226 leukemia
SK-MEL-5 melanoma = tested on: SK-MEL-5 melanoma
DU-145 prostate = tested on: DU-145 prostate
OVCAR-3 ovarian = tested on: OVCAR-3 ovarian
HL-60(TB) leukemia = tested on: HL-60(TB) leukemia
HT29 colon = tested on: HT29 colon
BT-549 breast = tested on: BT-549 breast

`COc1ccc(C[C@H]2NC(=O)/C=C/C[C@@H]([C@H](C)[C@H]3O[C@@H]3c3ccccc3)OC(=O)[C@H](CC(C)C)OC(=O)[C@H](C)CNC2=O)cc1` showed a TGI (HCT-15 colon) of over 0.1 nM, a TGI (EKVX NSCLC) of over 0.0966 nM and a TGI (HS 578T breast) of over 0.0666 nM. For the same molecule, the TGI (A549 NSCLC) was over 0.1 nM, the TGI (NCI-H23 lung) was over 0.0734 nM and the TGI (PC-3 prostate) was over 0.1 nM. It also gave a TGI (SK-OV-3 ovarian) of over 0.1 nM, a TGI (SF-268 CNS) of over 0.1 nM and a TGI (MDA-N) of 0.0232 nM. It also gave a TGI (OVCAR-5 ovarian) of over 0.1 nM, a TGI (HOP-62 NSCLC) of over 0.0745 nM and a TGI (SF-295 CNS) of over 0.0684 nM. It also gave a TGI (CAKI-1 renal) of over 0.1 nM, a TGI (T-47D breast) of over 0.1 nM and a TGI (NCI-H522 lung) of over 0.1 nM. The TGI (SNB-19 CNS) was over 0.1 nM, the TGI (K-562 leukemia) was over 0.0813 nM and the TGI (ACHN renal) was over 0.1 nM. For the same molecule, the TGI (MDA-MB-435) was 0.0145 nM, the TGI (786-0 renal) was over 0.1 nM and the TGI (MDA-MB-231 breast) was over 0.0879 nM. It also gave a TGI (OVCAR-4 ovarian) of over 0.1 nM, a TGI (MALME-3M melanoma) of over 0.1 nM and a TGI (TK-10 renal) of over 0.1 nM. The TGI (COLO 205 colon) was 0.0499 nM, the TGI (MOLT-4 leukemia) was over 0.1 nM and the TGI (SNB-75 CNS) was over 0.0919 nM. It also gave a TGI (HCC-2998 colon) of over 0.1 nM, a TGI (UACC-62 melanoma) of 0.0338 nM and a TGI (UO-31 renal) of over 0.1 nM. The TGI (SN12C renal) was over 0.1 nM, the TGI (NCI/ADR-RES ovarian) was over 0.1 nM and the TGI (LOX IMVI melanoma) was over 0.1 nM. It also gave a TGI (U251 CNS) of over 0.1 nM, a TGI (OVCAR-8 ovarian) of 0.0555 nM and a TGI (RXF 393 renal) of over 0.0312 nM. The TGI (A498 renal) was 0.0837 nM, the TGI (KM12 colon) was over 0.1 nM and the TGI (CCRF-CEM leukemia) was over 0.0699 nM. For the same molecule, the TGI (NCI-H226 lung) was over 0.0726 nM, the TGI (SW-620 colon) was over 0.1 nM and the TGI (IGROV1 ovarian) was over 0.1 nM. The TGI (NCI-H460 lung) was over 0.1 nM, the TGI (UACC-257 melanoma) was over 0.1 nM and the TGI (M14 melanoma) was 0.0684 nM. The TGI (SF-539 CNS) was 0.0436 nM, the TGI (MCF7 breast) was over 0.1 nM and the TGI (SK-MEL-2 melanoma) was over 0.1 nM. For the same molecule, the TGI (HCT-116 colon) was over 0.1 nM, the TGI (SK-MEL-28 melanoma) was over 0.1 nM and the TGI (RPMI-8226 leukemia) was over 0.1 nM. It also gave a TGI (SK-MEL-5 melanoma) of 0.0706 nM, a TGI (DU-145 prostate) of over 0.0897 nM and a TGI (OVCAR-3 ovarian) of over 0.1 nM. The TGI (HL-60(TB) leukemia) was 0.052 nM and the TGI (HT29 colon) was over 0.0654 nM.
For `C=CCn1c(-c2ccccc2)cs/c1=N\C(P(=O)(O)O)P(=O)(O)O`, the TGI (HCT-15 colon) was over 100000 nM, the TGI (EKVX NSCLC) was over 100000 nM and the TGI (A549 NSCLC) was over 100000 nM. It also gave a TGI (NCI-H23 lung) of over 100000 nM, a TGI (PC-3 prostate) of over 100000 nM and a TGI (SK-OV-3 ovarian) of over 100000 nM. For the same molecule, the TGI (SF-268 CNS) was over 100000 nM, the TGI (MDA-N) was over 100000 nM and the TGI (OVCAR-5 ovarian) was over 100000 nM. It also gave a TGI (HOP-62 NSCLC) of over 100000 nM, a TGI (SF-295 CNS) of over 100000 nM and a TGI (CAKI-1 renal) of over 100000 nM. For the same molecule, the TGI (NCI-H522 lung) was over 100000 nM, the TGI (SNB-19 CNS) was over 100000 nM and the TGI (ACHN renal) was over 100000 nM. The TGI (786-0 renal) was over 100000 nM, the TGI (MDA-MB-231 breast) was over 100000 nM and the TGI (MALME-3M melanoma) was over 100000 nM. The TGI (TK-10 renal) was over 100000 nM, the TGI (COLO 205 colon) was over 100000 nM and the TGI (HCC-2998 colon) was over 100000 nM. The TGI (UACC-62 melanoma) was over 100000 nM, the TGI (UO-31 renal) was over 100000 nM and the TGI (BT-549 breast) was over 100000 nM. It also gave a TGI (NCI/ADR-RES ovarian) of over 100000 nM, a TGI (LOX IMVI melanoma) of over 100000 nM and a TGI (RXF 393 renal) of over 100000 nM. For the same molecule, the TGI (KM12 colon) was over 100000 nM, the TGI (NCI-H226 lung) was over 100000 nM and the TGI (IGROV1 ovarian) was over 100000 nM. For the same molecule, the TGI (NCI-H460 lung) was over 100000 nM, the TGI (UACC-257 melanoma) was over 100000 nM and the TGI (M14 melanoma) was over 100000 nM. It also gave a TGI (SF-539 CNS) of over 100000 nM, a TGI (MCF7 breast) of over 100000 nM and a TGI (HCT-116 colon) of over 100000 nM. For the same molecule, the TGI (SK-MEL-5 melanoma) was over 100000 nM, the TGI (DU-145 prostate) was over 100000 nM and the TGI (OVCAR-3 ovarian) was over 100000 nM.
